# Patent publication US9629899B2, “Targeted cargo protein combination therapy” (priority 2008, dated 2017)
# Legend:
# [1] = test system: MIA-PaCa-2 cells; assay: cells; assay type: cell-based, human
# [2] = test system: HS766T cells; assay: Protein synthesis inhibition assay (cytotoxicity), HS766T; assay type: cell-based; conditions: Homo sapiens, read-out: IC50 (50% protein synthesis inhibition), single agent
# Protocol: Protein synthesis inhibition assay and assessment of synergism or antagonism. […] On the basis of the isobologram analysis for mutually exclusive effects, the CI value was calculated as follows:
# [3] = mice receiving optimal doses; data not shown
# [4] = test system: SW1990 cells; assay: cells; assay type: cell-based, human
# [5] = test system: MIA-PaCa-2-GFP tumors; assay: Advanced metastatic pancreatic tumor model, orthotopic MIA-PaCa-2-GFP, whole-body imaging and survival; assay type: in vivo, nude mice
# Protocol: (§1) Surgical orthotopic implantation of MIA-PaCa-2-GFP tumors. MIA-PaCa-2-GFP cells were injected s.c. into the right dorsal flank of nude mice. Pancreatic tumors, grown s.c. in nude mice, were cut with scissors and minced into f3% 3% 3-mm pieces. For orthotopic surgery, the pancreas was carefully exposed, and tumor chunks were transplanted on the middle of the pancreas with a 6-0 Dexon surgical suture (Davis-Geck, Inc.). The pancreas was then returned to the peritoneal cavity, the abdominal wall, and the skin was closed with 6-0 Dexon sutures.
# For advanced pancreatic cancer model, primary and metastasis tumor lesions were detected by external whole-body imaging on day 14 post-transplantation of tumor chunk and randomized into four groups of 10 mice each. Treatment was initiated on day 15.
# The mean tumor volume in therapeutic and control groups was analyzed by ANOVA. Survival curves were generated by Kaplan-Meier method and compared by using the log-rank test.
# Group 2 animals received gemcitabine (150 mg/kg) by i.p. administration twice a week as long as the experiment lasted.
# [6] = test system: clinical pancreatic cancer sample xenograft; assay: Advanced orthotopic pancreatic cancer model from a clinical sample, survival; assay type: in vivo; conditions: clinical sample in SCID mice, treatment from day 31; gemcitabine 150 mg/kg i.p. twice a week; PRX321 100 ug/kg i.p. twice a day days 31-35; non-treatment 62 days
# Protocol: Primary and orthotopic pancreatic cancer model using a clinical sample. […] Viable tumor tissue from specimen was cut into small pieces (3% 3% 3 mm) and implanted in the pancreas of 5- to 6-week-old male SCID mice. Primary xenografts were propagated continuously in SCID mice for in vivo testing. Clinical sample-bearing mice were also treated after day 31 by the same protocol as described above.
# (§2) Statistical analysis. The mean tumor volume in therapeutic and control groups was analyzed by ANOVA. Survival curves were generated by Kaplan-Meier method and compared by using the log-rank test.
# These mice, when advanced disease developed, were divided into four groups on day 31 and treated as described in Materials and Methods. […] Group 2 animals received gemcitabine (150 mg/kg) by i.p. administration twice a week as long as the experiment lasted.
# [7] = test system: Capan-1 cells; assay: cells; assay type: cell-based, human
# [8] = test system: MIA-PaCa-2-GFP tumors; assay: Early pancreatic tumor model, orthotopic MIA-PaCa-2-GFP, whole-body imaging and survival; assay type: in vivo, nude mice
# Protocol: as §1
# Experimental design and treatment. For early pancreatic cancer model, primary tumor lesions were detected by external whole-body imaging on day 4 after transplantation. Once the tumors were visualized, mice were randomized into four groups of 10 each. Treatment was initiated on day 5. For advanced pancreatic cancer model, primary and metastasis tumor lesions were detected by external whole-body imaging on day 14 post-transplantation of tumor chunk and randomized into four groups of 10 mice each. Treatment was initiated on day 15.
# as §2
# Treatment was initiated on day 5 after transplantation. […]
# [9] = Homo sapiens, read-out: IC50 (50% protein synthesis inhibition), single agent
smiles,measurement,setting,value
Nc1ccn([C@@H]2O[C@H](CO)[C@@H](O)C2(F)F)c(=O)n1 [Gemcitabine],IC50,[1]; [9],22 nM
same,IC75 (75% protein synthesis inhibition),[1]; single agent,280 nM
same,IC50,[2],14 nM
same,"Visible signs of toxicity (weight loss, inactivity)",[3],no visible signs of toxicity
same,IC50,[4]; [9],1000 nM
same,IC75 (75% protein synthesis inhibition),[4]; single agent,"3,000 nmol/L"
same,Reduction in tumor size on day 28 compared with the no treatment group,[5]; day 28,39.8%
same,Median survival time,[5]; non-treatment group 28 days,34 days
same,Tumor growth compared with non-treatment group (whole-body imaging),"[5]; treatment from day 15, gemcitabine 150 mg/kg i.p. twice a week, PRX321 100 ug/kg i.p. twice a day for 5 days",reduction in the rate of tumor growth
same,Median survival time,[6],86 days
same,IC50,[7]; [9],3.2 nM
same,IC75 (75% protein synthesis inhibition),[7]; single agent,9 nM
same,Median survival time,[8]; non-treatment group 27 days,54 days
same,Tumor growth compared with non-treatment group (whole-body imaging),"[8]; treatment from day 5, gemcitabine 150 mg/kg i.p. twice a week, PRX321 100 ug/kg i.p. twice a day for 5 days",reduction in the rate of tumor growth
